According to patent US20080242698A1, “Organic Compounds” (priority 2005, published 2008):

| SMILES | melting point |
| --- | --- |
| CC(C)N(C(=O)CNCC(c1ccccc1)c1ccccc1)c1ccccc1.Cl | 240 to 243 °C |
| CC(C)N(C(=O)CNCc1ccc(Cl)c(Cl)c1)c1ccccc1.Cl | 245 to 250 °C |
| CS(=O)(=O)O.CS(=O)(=O)O.Clc1ccc(C(NCCNC(c2ccccc2)c2ccc(Cl)cc2)c2ccccc2)cc1 (stereo not drawn) | 233 to 235 °C |
| Cl.O=C(CNCC(c1ccccc1)c1ccccc1)N1c2ccccc2Oc2ccccc21 | 215 to 216 °C |
| Cl.O=C(CNCC(c1ccccc1)c1ccccc1)n1c2ccccc2c2ccccc21 | 250 °C |
| Cl.O=C(CNCc1ccccc1Cl)N(c1ccccc1)c1ccccc1 | 213 to 214.5 °C |
| Cl.O=C(CNC(c1ccccc1)c1ccccc1)N(Cc1ccccc1)c1ccccc1 | 181 to 182 °C |
| Cl.O=C(CNC(c1ccccc1)c1ccccc1)N1CCCc2ccccc21 | 191 to 194 °C |
| CC(C)N(C(=O)CNC(c1ccccc1)c1ccccc1)c1ccccc1.Cl | 241 to 243 °C |
| CC(CNCC(=O)N1CCCc2ccccc21)(c1ccccc1)c1ccccc1.Cl | 210 to 212 °C |
| Cl.O=C(CN1CCc2ccccc2C1)N1CCCc2ccccc21 | 201 to 203 °C |
| Cl.O=C(CNC1CCCc2ccccc21)N1c2ccccc2C=Cc2ccccc21 (stereo not drawn) | 245 to 246 °C |
| Cl.O=C(CNCc1ccccc1)N(c1ccccc1)c1ccccc1 | 234 to 237 °C |
| Cl.O=C(CNCc1ccc(Cl)c(Cl)c1)N1c2ccccc2C=Cc2ccccc21 | 244 to 249 °C |
| Cl.O=C(CNCC(c1ccccc1)c1ccccc1)N1CCCc2ccccc21 | 174 to 178 °C |
| CN(C(=O)CNCC(c1ccccc1)c1ccccc1)c1ccccc1.Cl | 221 to 223 °C |
| Cl.O=C(CNC(c1ccccc1)c1ccccc1)NCCC(c1ccccc1)c1ccccc1 | 177.5 to 178.1 °C |
| Cl.O=C(CNC(c1ccccc1)c1ccccc1)NCc1ccccc1 | 161.9 to 162.9 °C |
| Cl.O=C(CNC1CCc2ccccc2C1)N(c1ccccc1)c1ccccc1 (stereo not drawn) | 274 to 295 °C |
| Cl.NC(C(=O)NCC(=O)N(c1ccccc1)c1ccccc1)c1ccccc1 (stereo not drawn) | 177 to 185 °C (dec.) |
| Cl.O=C(NCc1cccc(Cl)c1)C(NC(c1ccccc1)c1ccccc1)c1ccccc1 (racemic) | 215 to 216 °C |
| CC1CCc2ccccc2N1C(=O)CNCC(c1ccccc1)c1ccccc1.Cl (racemic) | 212 to 215 °C |
| CC(NCC(c1ccccc1)c1ccccc1)C(=O)N(c1ccccc1)c1ccccc1.Cl (racemic) | 122 to 125 °C |
| O=C(CNCc1ccccc1Cl)NC(c1ccccc1)c1ccccc1 [Example 5, N-Benzhydryl-2-(2-chloro-benzylamino)-acetamide] | 98 to 99 °C |
| O=C(CN1CCc2ccccc2C1)N(c1ccccc1)c1ccccc1 [Example 14, 2-(3,4-Dihydro-1H-isoquinolin-2-yl)-N,N-diphenyl-acetamide] | 202 to 204 °C |
| O=C(CNC(c1ccccc1)c1ccccc1)N(c1ccccc1)c1ccccc1 [Example 15, 2-(Benzhydryl-amino)-N,N-diphenyl-acetamide] | 122 to 123 °C |
| CN(C(=O)CNC(c1ccccc1)c1ccccc1)c1ccccc1 [Example 24, 2-(Benzhydryl-amino)-N-methyl-N-phenyl-acetamide] | 115 to 116 °C |

Next, values leading:

| melting point | SMILES |
| --- | --- |
| 72 to 78 °C | Cl.O=C(CNCC(c1ccccc1)c1ccccc1)N1CCc2ccccc2C1 |
| 224 to 226 °C | CC(C)N(C(=O)CNCc1cccc2ccccc12)c1ccccc1.Cl |
| 132 to 134 °C | Cl.O=C(CNC(c1ccccc1)c1ccccc1)Nc1cccc2ccccc12 |
| 151 to 158 °C | Cl.O=C(CNC(c1ccccc1)c1ccccc1)Nc1ccccc1-c1ccccc1 |
| 188 to 190 °C | Cl.O=C(CNCC(c1ccccc1)c1ccccc1)N(Cc1ccccc1)c1ccccc1 |
| 190 to 192 °C | Cl.O=C(CNCc1ccccc1Cl)N(Cc1ccccc1)c1ccccc1 |
| 82 to 95 °C | Cc1cccc2c1N(C(=O)CNCC(c1ccccc1)c1ccccc1)CCC2.Cl |
| 128 to 136 °C | Cc1cccc2c1N(C(=O)CNC(c1ccccc1)c1ccccc1)CCC2.Cl |
| 232 to 234 °C | Cl.O=C(CNCC(c1ccccc1)c1ccccc1)N(c1ccccc1)c1ccccc1 |
| 233 to 235 °C | Cl.O=C(CNCc1cccc2ccccc12)N(c1ccccc1)c1ccccc1 |
| 227 to 230 °C | Cl.O=C(CNCCC(c1ccccc1)c1ccccc1)N(c1ccccc1)c1ccccc1 |
| 243 to 259 °C | Cl.O=C(CNCCc1ccccc1)N1c2ccccc2C=Cc2ccccc21 |
| 179 to 185 °C | Cl.N[C@@H](C(=O)NCC(=O)N1c2ccccc2C=Cc2ccccc21)c1ccccc1 |
| 192 to 233 °C | Cl.N[C@H](C(=O)NCC(=O)N1c2ccccc2C=Cc2ccccc21)c1ccccc1 |
| 221 to 224 °C | CN(C(=O)CNCc1ccc(Cl)c(Cl)c1)c1ccccc1.Cl |
| 153 to 155 °C | COc1ccc(CNC(C(=O)NCc2ccccc2)c2ccccc2)cc1.O=C(O)/C=C/C(=O)O (racemic) |
| 159 to 161 °C | CN(C)c1ccc(CNC(C(=O)NCc2ccccc2)c2ccccc2)cc1.O=C(O)/C=C/C(=O)O (racemic) |
| 218.4 to 219.2 °C (dec.) | Cl.O=C(NCc1ccccc1)C(NC(c1ccccc1)c1ccccc1)c1ccccc1 (racemic) |
| 172 to 173 °C | CC(CN(C)C)N1c2ccccc2CCc2ccccc21.Cl (racemic) |
| 232 to 236 °C | CC(NCC(=O)N(c1ccccc1)c1ccccc1)c1ccccc1.Cl (racemic) |
| 208 to 210 °C | CC(NC1Cc2ccccc2C1)C(=O)N(c1ccccc1)c1ccccc1.Cl (racemic) |
| 210.3 to 212 °C | CC(NC(c1ccccc1)c1ccccc1)C(=O)NCCC(c1ccccc1)c1ccccc1.Cl (racemic) |
| 109 to 119.5 °C | O=C(NCc1ccccc1)C(c1ccccc1)N(Cc1ccccc1)Cc1ccccc1 (racemic) [Example 106, rac-N-Benzyl-2-dibenzylamino-2-phenyl-acetamide] |
| 107 to 108 °C | COc1cc(CNC(C(=O)NCc2ccccc2)c2ccccc2)cc(OC)c1 (racemic) [Example 112, rac-N-Benzyl-2-(3,5-dimethoxy-benzylamino)-2-phenyl-acetamide] |
| 68 to 70 °C | O=C(NCC(c1ccccc1)c1ccccc1)C(Cc1ccccc1)NCc1ccccn1 (racemic) [Example 136, rac-N-(2,2-Diphenyl-ethyl)-3-phenyl-2-[(pyridin-2-ylmethyl)-amino]-propion-amide] |
| 82 to 84 °C | O=C(CNC1c2ccccc2-c2ccccc21)N1CCCc2ccccc21 [Example 31, 1-(3,4-Dihydro-2H-quinolin-1-yl)-2-(9H-fluoren-9-ylamino)-ethanone] |
| 258 to 260 °C | O=C(NC(C(=O)NCc1ccccc1)c1ccccc1)c1ccc2cc(C(=O)O)[nH]c2c1 (stereo not drawn) [Example 117, 6-[(Benzylcarbamoyl-phenyl-methyl)-carbamoyl]-1H-indole-2-carboxylic acid] |
